What all share (format): cell-based
Test [1] deals with sonic hedgehog pathway. In words: Hedgehog pathway Gli-luciferase reporter assay, S12 cells. The note with it: S12 mouse embryonic mesenchymal cells, read-out: Mouse S12 Avg. EC50. From the text: Mouse (TM3: mouse Leydig cells; S12: mouse embryonic mesenchymal cells) and human (Daoy: human medulloblastoma cell; HepM: human embryonic palatal mesenchymal cell) cell lines are used to screen small molecules for their ability to modulate the activity of the sonic hedgehog pathway (Table 1, Table 2, and Table 3). Stable hedgehog pathway reporter cell lines are established by specific antibiotic selection following transfection of a reporter plasmid containing a luciferase gene located directly downstream from the gli promoter. Consequently, any observable changes in cellular luciferase activity may be attributed to changes in sonic hedgehog pathway activity in mouse and human cells, respectively, since gli is the major by-product of this pathway. To calculate activity, we generate an eleven point dose curve for each compound using 1:3 dilutions in 96 well assay plates. Each plate tested also contains low and high control to establish maximal pathway activation so to establish/compare a percentage activation of each tested compound (AMAX) on respective plates. Also we calculate EC50 values, or a concentration where the pathway will be exactly 50% activated, for each tested compound to determine potency. In these cell lines, compounds that register >20% AMAX values are considered active.
Stable hedgehog pathway reporter cell lines are established following specific antibiotic selection following transfection of a reporter plasmid In short, typically cells are plated in MicroTiter-plates at 10,000-20,000 cells per well, in growth media (containing 10%-20% FBS). After 48-72 hrs (HGL and DGL respectively) the media in the assay plates is switched to low-serum containing media (0.5% FBS). At that time compounds are added (at 1-5 μM) to the assay plates, in the presence or absence of hedgehog protein (octyl-modified version; 1-5 ng/ml). After another 24 hrs of incubation, the media from the assay plates is discarded and replaced with luciferase assay-mix. Subsequently, plates are incubated at RT for ˜15-30 mins and then read in a luminometer. [note: addition of the Hedgehog protein, although not critical, will sensitize the assay allowing the identification of weak actives].

In test [2] the test system is sonic hedgehog pathway. In words: Human hedgehog reporter assay Daoy-GliLuc (DGL). Conditions: Daoy human medulloblastoma cells, Gli-luciferase reporter. An outline of the steps:
(§1)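 Agonist mode: cells carrying a luciferase gene downstream of the gli promoter received compound at 1–5 μM in 0.5% FBS for 24 h, optionally sensitised with 1–5 ng/ml octyl-modified hedgehog protein; luminescence gave % activation and EC50.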
A general note: A reporter such as luciferase makes a cellular process visible.

Test [3] has as its system sonic hedgehog pathway. Kind of test: Hedgehog pathway Gli-luciferase reporter assay, TM3 cells. The note with it: TM3 mouse Leydig cells. An outline of the steps: as §1
For test [4], the system named is sonic hedgehog pathway. In words: Human hedgehog reporter assay HEPM-GliLuc (HGL). Conditions: HepM human embryonic palatal mesenchymal cells, Gli-luciferase reporter. The gist of the method:
as §1

The mark [5] stands for this setting: read-out: Human Daoy (Gli-Luc) Avg. EC50.

Counter-ions that a name gives are not always drawn.

This passage reports EC50 results from patent publication US20080182859A1 (Curis, Inc., priority 2006, published 2008).

Consider `CN[C@H]1CC[C@@H](N(Cc2cc(-c3ccc(CS(C)(=O)=O)cc3)ccc2OC)C(=O)c2sc3c(F)ccc(F)c3c2Cl)CC1` [Compound 369, 3-Chloro-4,7-difluoro-benzo[b]thiophene-2-carboxylic acid (4′-methanesulfonylmethyl-4-methoxy-biphenyl-3-ylmethyl)-(4-methylamino-cyclohexyl)-amide hydrochloride], for which the EC50 in test [1] and in test [2] (setting [5]) was less than 50 nM throughout.

Turning to `CN[C@H]1CC[C@@H](N(Cc2cc(-c3ccc(NS(C)(=O)=O)cc3)ccc2OC)C(=O)c2sc3c(F)ccc(F)c3c2Cl)CC1` [Compound 370, 3-Chloro-4,7-difluoro-benzo[b]thiophene-2-carboxylic acid (4′-methanesulfonylamino-4-methoxy-biphenyl-3-ylmethyl)-(4-methylamino-cyclohexyl)-amide hydrochloride], the EC50 in test [1] and in test [2] (setting [5]) was less than 50 nM each time.

`CN[C@H]1CC[C@@H](N(Cc2cc(-c3ccc(N(C)S(C)(=O)=O)cc3)ccc2OC)C(=O)c2sc3c(F)ccc(F)c3c2Cl)CC1` [Compound 371, 3-Chloro-4,7-difluoro-benzo[b]thiophene-2-carboxylic acid [4′-(methanesulfonyl-methyl-amino)-4-methoxy-biphenyl-3-ylmethyl]-(4-methylamino-cyclohexyl)-amide hydrochloride]: the EC50 in test [1] and in test [2] (setting [5]) was less than 50 nM throughout.

Take `CNC1CCC(N(Cc2cc(-c3cccc(SC)c3)ccc2OC)C(=O)c2sc3c(F)ccc(F)c3c2Cl)CC1` (stereo not shown) [Compound 372, 3-Chloro-4,7-difluoro-benzo[b]thiophene-2-carboxylic acid (4-methoxy-3′-methylsulfanyl-biphenyl-3-ylmethyl)-(4-methylamino-cyclohexyl)-amide hydrochloride]: the concentration giving a half-maximal response (EC50) in test [1] and in test [2] (setting [5]) was less than 50 nM in each case.

`CNC1CCC(N(Cc2cc(-c3ccc(SC)cc3)ccc2OC)C(=O)c2sc3c(F)ccc(F)c3c2Cl)CC1` (stereo not shown) [Compound 373, 3-Chloro-4,7-difluoro-benzo[b]thiophene-2-carboxylic acid (4-methoxy-4′-methylsulfanyl-biphenyl-3-ylmethyl)-(4-methylamino-cyclohexyl)-amide hydrochloride]: the concentration for a half-maximal effect (EC50) in test [1] and in test [2] (setting [5]) was less than 50 nM each time.

As to `CN[C@H]1CC[C@@H](N(Cc2cc(-c3cc[n+]([O-])cc3)ccc2OC)C(=O)c2sc3c(F)ccc(F)c3c2Cl)CC1` [Compound 374, 4-(3-((3-chloro-4,7-difluoro-N-((1s,4s)-4-(methylamino)cyclohexyl)benzo[b]thiophene-2-carboxamido)methyl)-4-methoxyphenyl)pyridine 1-oxide], the EC50 in test [1] and in test [2] (setting [5]) was less than 50 nM in each case.

In the case of `COc1ccc(-c2ccncc2)cc1CN(C(=O)c1sc2c(F)ccc(F)c2c1Cl)[C@H]1CC[C@@H](N)CC1` [Compound 375, N-((1r,4r)-4-aminocyclohexyl)-3-chloro-4,7-difluoro-N-(2-methoxy-5-(pyridin-4-yl)benzyl)benzo[b]thiophene-2-carboxamide hydrochloride], the EC50 in test [1] and in test [2] (setting [5]) was less than 50 nM in each case.

In the case of `CN[C@H]1CC[C@@H](N(Cc2cc(-c3cccc([S+](C)[O-])c3)ccc2OC)C(=O)c2sc3c(F)ccc(F)c3c2Cl)CC1` (stereo partly shown) [Compound 376, 3-Chloro-4,7-difluoro-benzo[b]thiophene-2-carboxylic acid (3′-methanesulfinyl-4-methoxy-biphenyl-3-ylmethyl)-(4-methylamino-cyclohexyl)-amide trifluoroacetate], the EC50 in test [1] and in test [2] (setting [5]) was less than 50 nM each time.

In the case of `CN[C@H]1CC[C@@H](N(Cc2cc(-c3ccc([S+](C)[O-])cc3)ccc2OC)C(=O)c2sc3c(F)ccc(F)c3c2Cl)CC1` (stereo partly shown) [Compound 377, 3-Chloro-4,7-difluoro-benzo[b]thiophene-2-carboxylic acid (4′-methanesulfinyl-4-methoxy-biphenyl-3-ylmethyl)-(4-methylamino-cyclohexyl)-amide trifluoroacetate], the concentration for a half-maximal effect (EC50) in test [1] and in test [2] (setting [5]) was less than 50 nM each time.

Take `CNC1CCC(N(Cc2cc(-c3cccnc3F)ccc2OC)C(=O)c2sc3c(F)ccc(F)c3c2Cl)CC1` (stereo not shown) [Compound 378, 3-Chloro-4,7-difluoro-benzo[b]thiophene-2-carboxylic acid [5-(2-fluoro-pyridin-3-yl)-2-methoxy-benzyl]-(4-methylamino-cyclohexyl)-amide]: the concentration giving a half-maximal response (EC50) in test [1] and in test [2] (setting [5]) was less than 50 nM throughout.

With `CNC1CCC(N(Cc2cc(-c3ccc(F)nc3)ccc2OC)C(=O)c2sc3c(F)ccc(F)c3c2Cl)CC1` (stereo not shown) [Compound 379, 3-Chloro-4,7-difluoro-benzo[b]thiophene-2-carboxylic acid [5-(6-fluoro-pyridin-3-yl)-2-methoxy-benzyl]-(4-methylamino-cyclohexyl)-amide], the 50% effective concentration (EC50) in test [1] and in test [2] (setting [5]) was less than 50 nM each time.

On to `CNC1CCC(N(Cc2cc(-c3cncc(F)c3)ccc2OC)C(=O)c2sc3c(F)ccc(F)c3c2Cl)CC1` (stereo not shown) [Compound 380, 3-Chloro-4,7-difluoro-benzo[b]thiophene-2-carboxylic acid [5-(5-fluoro-pyridin-3-yl)-2-methoxy-benzyl]-(4-methylamino-cyclohexyl)-amide], for which the half-maximal effective concentration (EC50) in test [1] and in test [2] (setting [5]) was less than 50 nM each time.

As to `CN[C@H]1CC[C@@H](N(Cc2cc(-c3cccnc3F)ccc2OC)C(=O)c2sc3cccc(F)c3c2Cl)CC1` [Compound 381], the EC50 in test [1] and in test [2] (setting [5]) was less than 50 nM throughout.

`CNC1CCC(N(Cc2cc(-c3ccc(F)nc3)ccc2OC)C(=O)c2sc3cccc(F)c3c2Cl)CC1` (stereo not shown) [Compound 382, 3-Chloro-4-fluoro-benzo[b]thiophene-2-carboxylic acid [5-(6-fluoro-pyridin-3-yl)-2-methoxy-benzyl]-(4-methylamino-cyclohexyl)-amide]: the EC50 in test [1] and in test [2] (setting [5]) was less than 50 nM each time.

With `CN[C@H]1CC[C@@H](N(Cc2cc(-c3cncc(F)c3)ccc2OC)C(=O)c2sc3cccc(F)c3c2Cl)CC1` [Compound 383, 3-chloro-4-fluoro-N-(5-(5-fluoropyridin-3-yl)-2-methoxybenzyl)-N-((1s,4s)-4-(methylamino)cyclohexyl)benzo[b]thiophene-2-carboxamide], the 50% effective concentration (EC50) in test [1] and in test [2] (setting [5]) was less than 50 nM each time.

With `CNC1CCC(N(Cc2cc(-c3ccnc(F)c3)ccc2OC)C(=O)c2sc3c(F)ccc(F)c3c2Cl)CC1` (stereo not shown) [Compound 384, 3-Chloro-4,7-difluoro-benzo[b]thiophene-2-carboxylic acid [5-(2-fluoro-pyridin-4-yl)-2-methoxy-benzyl]-(4-methylamino-cyclohexyl)-amide], the EC50 in test [1] and in test [2] (setting [5]) was less than 50 nM each time.

For the compound `CNC1CCC(N(Cc2cc(-c3ccnc(F)c3)ccc2OC)C(=O)c2sc3cccc(F)c3c2Cl)CC1` (stereo not shown) [Compound 385, 3-Chloro-4-fluoro-benzo[b]thiophene-2-carboxylic acid [5-(2-fluoro-pyridin-4-yl)-2-methoxy-benzyl]-(4-methylamino-cyclohexyl)-amide], the EC50 in test [1] and in test [2] (setting [5]) was less than 50 nM throughout.

On to `CN[C@H]1CC[C@H](N(Cc2cc(-c3ccc(C(=O)C(F)(F)F)cc3)ccc2F)C(=O)c2sc3ccccc3c2Cl)CC1` [Compound 424, 3-Chloro-benzo[b]thiophene-2-carboxylic acid [4-fluoro-4′-(2,2,2-trifluoro-acetyl)-biphenyl-3-ylmethyl]-(4-methylamino-cyclohexyl)-amide trifluoroacetate], for which the figures for the EC50 in test [3], in test [4] and in test [2] (read-out: Daoy Avg. EC50) were less than 50 nM, 250 to 1000 nM and less than 50 nM, respectively.

For `CN[C@H]1CC[C@@H](N(Cc2cc(-c3ccccc3)ccc2OC)C(=O)c2sc3ccccc3c2Cl)CC1` [Compound R3, 3-Chloro-benzo[b]thiophene-2-carboxylic acid (4-methoxy-biphenyl-3-ylmethyl)-(4-methylamino-cyclohexyl)-amide hydrochloride], the EC50 in test [3] is less than 50 nM; in test [4], 50 to 250 nM; in test [2] (read-out: Daoy Avg. EC50), 50 to 250 nM.

What is called EC50 is the concentration at which the effect is half-maximal.
